Key:
[1] = system: volume and total acid secretion; assay: Effect on rats after ligature of the pylorus (gastric juice volume and total acid); format: in vivo, Male Wistar rats; conditions: rat, i.v.; for ED50 value: given immediately before pylorus ligature, 2 hours, 120 min
Procedure: Effect on rats after ligature of the pylorus
Male Wistar rats (weighing between 100 and 125 g) which had fasted for 24 hours but had free access to water was used. The rats were divided up into groups of 10 animals. The rats were anaesthetised with ether and the abdominal cavity was opened up by longitudinal cutting and the pylorus was tied off. Before ligature of the pylorus, the substances dissolved in saline solution were administered intravenously in metered doses (0.1 ml/100 g of body weight), the intravenous administration was carried out immediately before ligature of the pylorus; control animals were given only the saline solution. Two hours after the ligature the animals were killed and the stomachs were carefully removed. The stomach contents were collected and centrifuged for 15 minutes at 4000 rpm, then the supernatant was separated off in order to determine the volume of gastric juices. Using a pH measuring apparatus (I.T.T. Radiometer PHM 62) the acidity was measured by titration to pH 7 of 1 ml samples of the gastric juices.
The total acid was calculated from the product of the measured volume and acidity (microequivalent.ml) and expressed as microequivalents over 2 or 4 hours. The data obtained from the individual pretreated rats were compared with the average values obtained from the control groups and expressed as the percentage deviation. The percentage values were transformed into probits and subjected to linear regression analysis in order to determine the ED50 values for volume and total acid secretion, whilst observing 95% confidence limits.

[2] = system: secretion of gastric acid; assay: Anti-ulcerative effect, inhibition of gastric acid secretion and effect on other gastro-intestinal diseases (general statement); format: in vivo; conditions: for physiological/biological effectiveness: statement in words
[3] = Racemisation Test; format: physicochemical
[4] = ambient temperature; Arzneim.-Forsch./Drug Res. 34(II), 8, 849-859 (1984); cited from earlier work
[5] = pH 1 to 9, water, glycol, melt, up to 150° C., fifteen minutes

CN1CCC(CC(=O)N2c3ccccc3C(=O)Nc3cccc(Cl)c32)CC1 [(-) form]
deviation from the average values of untreated control groups ([1]; 3 mg/kg): 1.6% | ED50 value [1]: > 3 mg/kg | quantity required to achieve the same results ([2]; (-) form, to achieve the same results): at least 50 times

CN1CCC(CC(=O)N2c3ccccc3C(=O)Nc3cccc(Cl)c32)CC1 [(+) form, (+)-6-Chloro-5,10-dihydro-5-[(1-methyl-4-piperidinyl)-acetyl]-11H-dibenzo[b,e][1,4]diazepin-11-one]
ED50 value [1]: 0.18 mg/kg | activity in the pylorus ligature experiment ([1]; conclusion in words): the form which carries the activity | formation of (-) enantiomer (HPLC) [3, 5]: no (-) enantiomer had formed | optical rotation on heating [3, 5]: remained constant | racemisation [3, 5]: no racemisation | dosage needed to achieve the same results, relative to the mixture of enantiomers ([2]; compared with the mixture of enantiomers): approximately only half the dosage | effect on various other diseases of the gastro-intestinal tract ([2]; particularly low bowel distress symptoms): favourable effect on various other diseases of the gastro-intestinal tract | physiological/biological effectiveness [2]: physiologically highly effective | physiological/biological effectiveness ([2]; listed as Ia): biologically effective form | anti-ulcerative effect ([2]; unlike the (-) form): Powerful anti-ulcerative effect | effect on the secretion of gastric acid ([2]; unlike the (-) form): inhibitory effect on the secretion of gastric acid

CN1CCN(CC(=O)N2c3ccccc3C(=O)Nc3cccnc32)CC1 [pirenzepine]
interconversion of enantiomeric forms [4]: rapidly interconvert

CN1CCC(CC(=O)N2c3ccccc3C(=O)Nc3cccc(Cl)c32)CC1 [formula I, 6-chloro-5,10-dihydro-5-[(1-methyl-4-piperidinyl)-acetyl]-11H-dibenzo[b,e][1,4]diazepin-11-one]
stability of enantiomeric forms ([3]; ambient temperature): stable at ambient temperature

— patent publication US4668674A, “(+)-6-chloro-5,10-dihy dro-5-[(1-methyl-4-piperidinyl)-acetyl]-11H-dibenzo[b,][1,4]diazepin-11-o ne, the isolation thereof and its use as a pharmaceutical material” (Dr. Karl Thomae GmbH, priority 1985, dated 1987)
